Data published in patent US20220048878A1, “IMPROVEMENT IN OR RELATING TO ORGANIC COMPOUNDS” (GIVAUDAN SA, priority 2018, published 2022).
Where two headings read alike, the source gives them in different places.

Columns and labels:
[1] = cited from earlier work
male rats [2] = details: cited from earlier work
male rats [3] = experiment: Repeated dose 28-day oral toxicity study in rats (OECD Guideline 407), reproductive organs and sperm analysis; assay type: in vivo; details: for Motile Sperms (%) / Sperm cells with normal morphology (count/total) / Sperm cells with normal morphology (percent) / Number of sperms per gram: male rats
Protocol: An isomeric mixture obtained according to Example 1 b was tested in a repeated dose 28-day oral toxicity study in rats according to OECD Guideline 407 (OECD, Paris, October 2008). Groups of animals (n=5) were fed with a diet containing the test item to obtain a daily ingested dose of 100 mg/kg body weight/day, 300 mg/kg body weight/day and 1000 mg/kg body weight/day. The animals were treated for 28 days. After this period, they were sacrificed and their organs were examined by pathological examination for gross lesions, weight changes and further investigated by histopathology. The seminal fluid from the epididymis was sampled and analyzed microscopically for number, morphology and motility of sperms.
All treated groups were compared to the control group with a Dunnett-test based on pooled variance and a Steel-test.

[4] = male rats, 1000 mg/kg body weight per day
[5] = male rats, 300 or 1000 mg/kg body weight per day
[6] = rats, 100, 300 and 1000 mg/kg body weight/day, 28 days

For `CC(C)=CC1CC(C)CCO1` (racemic) [Rose Oxide, 4-methyl-2-(2-methylprop-1-en-1-yl)tetrahydro-2H-pyran], the “Time to evaporate on a smelling strip” value ([1]; smelling strip) is listed as ≤ 30 min, the “Effects on sperm formation” value (male rats [2]; 28 days, OECD guideline 407, middle (300 mg/kg bw/d) and high (1000 mg/kg bw/d) dose) is listed as “clear-cut effects on sperm formation” and the “Classification (REACH/ECHA)” value (male rats [2]; classification provided by companies to ECHA) is listed as “CMR2”. For the same compound, the “Severity of immature ducts in distal corpus and/or cauda epididymis (histopathology)” value (male rats [2]; male rats, 300 mg/kg body weight per day) was “minimal to slight”, the “Severity of immature ducts in distal corpus and/or cauda epididymis (histopathology)” value (male rats [2]; [4]) was “slight to severe” and the “Weight increase of the epididymis, absolute” value (male rats [2]; [4]) was 33%. The “Weight increase of the epididymis, relative” value (male rats [2]; [4]) was 26%, the “Sperm function and morphology in the cauda epididymis” value (male rats [2]; [5]) was “adversely affected” and the Sperm numbers (male rats [2]; [5]) was “significantly reduced”.

In the case of `CCC(C)=C[C@@H]1C[C@H](C)CCO1` (relative stereo) [rel-(2S,4R)-4-methyl-2-(2-methylbut-1-en-1-yl)tetrahydro-2H-pyran], the “Suppression of sperm formation” value (male rats [3]; rats) is reported as “does not suppress sperm formation”.

For `CC1CCOC(c2ccccc2)C1` (stereo not drawn) [Doremox®, 4-methyl-2-phenyltetrahydro-2H-pyran], the “Lastingness compared to Rose Oxide” value ([1]; background statement) is listed as “too long-lasting compared to Rose Oxide”.

With `CCC(C)=CC1CC(C)CCO1` (stereo not drawn) [Example 1b, 4-methyl-2-(2-methylbut-1-en-1-yl)tetrahydro-2H-pyran] the “Effect on key parameters of male fertility” value (male rats [3]; 28 days, up to 1000 mg/kg bw/d) was “no effect”, the “Difference in sperm parameters between control group and treated groups” value (male rats [3]; Dunnett-test and Steel-test, p=0.05 significance level) was “No significant differences” and the “Motile Sperms (%)” value (male rats [3]; 100 mg/kg bw/d, 28 days) was 63 ± 12%. For the same compound, the “Sperm cells with normal morphology (count/total)” value (male rats [3]; 100 mg/kg bw/d, 28 days) was 156/246, the “Sperm cells with normal morphology (percent)” value (male rats [3]; 100 mg/kg bw/d, 28 days) was “(63.4%)” and the “Motile Sperms (%)” value (male rats [3]; 300 mg/kg bw/d, 28 days) was 47 ± 13%. For the same compound, the “Sperm cells with normal morphology (count/total)” value (male rats [3]; 300 mg/kg bw/d, 28 days) was 170/210, the “Sperm cells with normal morphology (percent)” value (male rats [3]; 300 mg/kg bw/d, 28 days) was “(81.0%)” and the “Motile Sperms (%)” value (male rats [3]; 1000 mg/kg bw/d, 28 days) was 53 ± 23%. For the same compound, the “Sperm cells with normal morphology (count/total)” value (male rats [3]; 1000 mg/kg bw/d, 28 days) was 158/197, the “Sperm cells with normal morphology (percent)” value (male rats [3]; 1000 mg/kg bw/d, 28 days) was “(80.2%)” and the “Number of sperms per gram” value (male rats [3]; n = 5, 100 mg/kg bw/d in diet, 28 days) was 3.9 ± 0.9 × 10^8. The “Number of sperms per gram” value (male rats [3]; n = 5, 300 mg/kg bw/d in diet, 28 days) was 4.0 ± 0.9 × 10^8, the “Number of sperms per gram” value (male rats [3]; n = 5, 1000 mg/kg bw/d in diet, 28 days) was 4.0 ± 1.9 × 10^8 and the “Macroscopic changes to reproductive organs” value (male rats [3]; [6]) was “no macroscopic changes”. The “Weight of the reproductive organs versus control group” value (male rats [3]; [6]) was “not different from the control group”.
